The values below come from the NIST ThermoML archive (doi:10.1021/acs.jced.7b00761).

Numbers after ± are expanded uncertainties.

This data set is described as follows: wn = mass fraction of the nth substance listed. The following applies: 313 K, 101.3 kPa, Liquid, w1 = 0.3.

Usually viscosity stands for the resistance of a fluid to flow. For orientation: mass density means the mass of a sample divided by its volume. For the molecule `CCNCCO` [2-(ethylamino)ethanol] + CCN(CC)CCO, the viscosity (Vibrating wire viscometry) is reported as 3.83 ± 0.21 mPa·s. The mass density (petroleum hydrometers) turned out to be 879 ± 3 kg/m3.
